US7662857B2, “Diagnostic agents for pancreatic exocrine function” (Tokyo Gas Company Limited, priority 2001, dated 2010)

Experiments:
[1] = test system: pancreatic exocrine function; experiment: 13C-dipeptide breath test in normal rats (Δ13C in exhaled CO2 after oral administration); format: in vivo, rat; conditions: for Δ^13C(‰) peak value / Peak time: oral 35 μmol/kg (5 ml/kg); for Δ^13C(‰) peak value: exhaled CO2; for Δ^13C(‰) value at 5 min after the administration / Δ^13C(‰) value at 10 min after the administration / Δ^13C(‰) value at 15 min after the administration / Δ^13C(‰) value at 20 min after the administration: normal rats, mean±SD; for Δ^13C(‰) peak value compared with the peak value of Bz-Ala-(^13C-Ala)-ONa: comparison in words
Method: (§1) Overnight-fasted rats (male, Wistar, 8-week old) in the awake state were individually fixed in a rat holder of a microwave irradiation apparatus. The breath was collected at a rate of about 100 to 300 ml/min using a stroke pump (Variable Stroke Pump VS-500; Shibata Kagaku Kogyo), and the CO2 concentration therein was maintained at about 3%. A Perma Pure drier (MD-050-12P; Perma Pure INC.) was set between the rat holder and the stroke pump to remove water vapor from the breath. When the CO2 concentration was stabilized, the rat was temporarily released from the rat holder. A ^13C-labeled dipeptide or a sodium salt thereof each dissolved in distilled water was administered to the stomach of the rat using an oral probe [dose: 35 μmol/kg (5 ml/kg)]. The breath was sampled with a syringe every 5 min until up to 20 min. A 15 ml sample was transferred from the syringe into a vacuum vial (10 ml), sealed and subjected to automated analysis by GC-MS (Breath MAT) [FinniganMAT]. Δ^13C(‰) was calculated from δ^13C values which are ^13C values of a sample (i.e. differences from the standard substance PDB) using the following formula. Δ^13C(‰)=(δ^13C)tmin−((δ^13C)0 min <Breath MAT Measuring Conditions>
Apparatus: Breath MAT plus (Finningan)
Using Ac-Met-(^13C-Ala)-ONa, Z-Met-(^13C-Ala)-ONa, Boc-Met-(^13C-Ala)-ONa or Boc-Phe-(^13C-Ala)-ONa [dose: 35 μmol/kg (5 ml/kg)], ^13C-breath tests were carried out in the same manner as in Example 12. The resultant Δ^13C(‰) peak values were compared with the Δ^13C(‰) peak value in the Bz-Ala-(^13C-Ala)-ONa breath test.
(§2) As in Example 12, Bz-Phe-(^13C-Ala)-ONa [dose: 12.6 mg/kg (35 μmol/kg)], Bz-Gln-(^13C-Ala)-ONa [dose: 12.0 mg/kg (35 μmol/kg)], Bz-Val-(^13C-Ala)-ONa [dose: 11.0 mg/kg (35 μmol/kg)], Bz-Tyr-(^13C-Ala)-ONa [dose: 13.2 mg/kg (35 μmol/kg)], Bz-Met-(^13C-Ala)-ONa [dose: 12.1 mg/kg (35 μmol/kg)], Bz-Ser-(^13C-Ala)-ONa [dose: 10.6 mg/kg (35 μmol/kg)], Bz-Thr-(^13C-Ala)-ONa [dose: 11.0 mg/kg (35 μmol/kg)] or Boc-Phe-(^13C-Ala)-ONa [dose: 8.84 mg/kg (24.6 μmol/kg)] was administered orally to normal rats and chronic pancreatitis rats. Then, the time course of the degree of increase of the ^13C concentration in exhaled CO2 (Δ^13C(‰)) was measured.

[2] = test system: pancreatic exocrine function; experiment: 13C-dipeptide breath test in chronic pancreatitis rats (oleic acid injected into pancreatic duct); format: in vivo, rat; conditions: mean±SD
Method: as §1
Chronic pancreatitis rats were created according to the method of Mundlos et al., Pancreas 1:29 (1986). Oleic acid was injected into the pancreatic duct of 5-week old Wistar male rats. After breeding for 3 weeks, they were used in ^13C-dipeptide breath tests.
as §2

[3] = Table 1, overnight-fasted Wistar rats
[4] = Table 1, overnight-fasted Wistar rats, peak in time course of Δ13C(‰) up to 20 min

C[C@H](NC(=O)[C@H](Cc1ccccc1)NC(=O)c1ccccc1)[13C](=O)[O-].[Na+] [Na salt of Bz-Phe-(^13C-Ala), N-benzoyl-L-phenylalanyl-^13C-L-alanine]
Δ^13C(‰) peak value [1, 3]: 55.62 ‰
Peak time [1, 4]: 10 min
Δ^13C(‰) value at 5 min after the administration ([1]; oral 35 μmol/kg): 29.32±13.57 ‰
Δ^13C(‰) value at 10 min after the administration ([1]; oral 35 μmol/kg): 55.62±6.62 ‰
Δ^13C(‰) value at 15 min after the administration ([1]; oral 35 μmol/kg): 45.44±3.44 ‰
Δ^13C(‰) peak value compared with the peak value of Bz-Ala-(^13C-Ala)-ONa ([1]; rats, oral 35 μmol/kg): higher
Δ^13C(‰) value at 5 min after the administration ([2]; oral 35 μmol/kg): 4.17±3.95 ‰
Δ^13C(‰) value at 10 min after the administration ([2]; oral 35 μmol/kg): 14.56±10.79 ‰
Δ^13C(‰) value at 15 min after the administration ([2]; oral 35 μmol/kg): 22.80±12.36 ‰

CSCC[C@H](NC(C)=O)C(=O)N[C@@H](C)[13C](=O)[O-].[Na+] [Na salt of Ac-Met-(^13C-Ala), acetyl-L-methionyl-^13C-L-alanine]
Peak time ([1]; Table 2, rats): 15 min
Δ^13C(‰) peak value ([1]; Table 2, rats): 63.15 ‰
Δ^13C(‰) peak value compared with the peak value of Bz-Ala-(^13C-Ala)-ONa ([1]; rats, oral 35 μmol/kg): higher

C[C@H](NC(=O)[C@H](CCC(N)=O)NC(=O)c1ccccc1)[13C](=O)[O-].[Na+] [Na salt of Bz-Gln-(^13C-Ala), N-benzoyl-L-glutaminyl-^13C-L-alanine]
Δ^13C(‰) peak value [1, 3]: 54.56 ‰
Peak time [1, 4]: 10 min
Δ^13C(‰) value at 5 min after the administration ([1]; oral 35 μmol/kg): 13.86±4.98 ‰
Δ^13C(‰) value at 10 min after the administration ([1]; oral 35 μmol/kg): 54.56±14.10 ‰
Δ^13C(‰) value at 15 min after the administration ([1]; oral 35 μmol/kg): 51.27±3.21 ‰
Δ^13C(‰) peak value compared with the peak value of Bz-Ala-(^13C-Ala)-ONa ([1]; rats, oral 35 μmol/kg): higher
Δ^13C(‰) value at 5 min after the administration ([2]; oral 35 μmol/kg): 3.41±3.44 ‰
Δ^13C(‰) value at 10 min after the administration ([2]; oral 35 μmol/kg): 15.32±13.04 ‰
Δ^13C(‰) value at 15 min after the administration ([2]; oral 35 μmol/kg): 28.06±19.01 ‰

C[C@H](NC(=O)[C@@H](NC(=O)c1ccccc1)[C@@H](C)O)[13C](=O)[O-].[Na+] [Na salt of Bz-Thr-(^13C-Ala), N-benzoyl-L-threonyl-^13C-L-alanine]
Δ^13C(‰) peak value [1, 3]: 47.36 ‰
Peak time [1, 4]: 10 min
Δ^13C(‰) value at 10 min after the administration ([1]; oral 35 μmol/kg): 47.36±10.99 ‰
Δ^13C(‰) value at 15 min after the administration ([1]; oral 35 μmol/kg): 47.11±5.67 ‰
Δ^13C(‰) peak value compared with the peak value of Bz-Ala-(^13C-Ala)-ONa ([1]; rats, oral 35 μmol/kg): higher
Δ^13C(‰) value at 10 min after the administration ([2]; oral 35 μmol/kg): 12.67±19.74 ‰
Δ^13C(‰) value at 15 min after the administration ([2]; oral 35 μmol/kg): 19.78±24.70 ‰

C[C@H](NC(=O)[C@H](Cc1c[nH]c2ccccc12)NC(=O)c1ccccc1)[13C](=O)[O-].[Na+] [Na salt of Bz-Trp-(^13C-Ala), reference compound]
Δ^13C(‰) peak value [1, 3]: 39.76 ‰
Peak time [1, 4]: 15 min

C[C@H](NC(=O)[C@H](CC(N)=O)NC(=O)c1ccccc1)[13C](=O)[O-].[Na+] [Na salt of Bz-Asn-(^13C-Ala), reference compound]
Δ^13C(‰) peak value [1, 3]: 41.74 ‰
Peak time [1, 4]: 15 min

C[C@H](NC(=O)[C@H](Cc1ccccc1)NC(=O)OC(C)(C)C)[13C](=O)[O-].[Na+] [Na salt of Boc-Phe-(^13C-Ala), t-butyloxycarbonyl-L-phenylalanyl-^13C-L-alanine]
Peak time ([1]; Table 2, rats): 20 min
Δ^13C(‰) peak value ([1]; Table 2, rats): 46.06 ‰
Δ^13C(‰) value at 5 min after the administration ([1]; oral 8.84 mg/kg (24.6 μmol/kg)): 5.02±3.79 ‰
Δ^13C(‰) value at 10 min after the administration ([1]; oral 8.84 mg/kg (24.6 μmol/kg)): 24.36±7.52 ‰
Δ^13C(‰) value at 15 min after the administration ([1]; oral 8.84 mg/kg (24.6 μmol/kg)): 28.13±4.43 ‰
Δ^13C(‰) value at 20 min after the administration ([1]; oral 8.84 mg/kg (24.6 μmol/kg)): 25.09±2.00 ‰
Δ^13C(‰) peak value compared with the peak value of Bz-Ala-(^13C-Ala)-ONa ([1]; rats, oral 35 μmol/kg): higher
Δ^13C(‰) value at 5 min after the administration ([2]; oral 8.84 mg/kg (24.6 μmol/kg)): 0.74±0.54 ‰
Δ^13C(‰) value at 10 min after the administration ([2]; oral 8.84 mg/kg (24.6 μmol/kg)): 3.43±1.46 ‰
Δ^13C(‰) value at 15 min after the administration ([2]; oral 8.84 mg/kg (24.6 μmol/kg)): 6.36±2.67 ‰
Δ^13C(‰) value at 20 min after the administration ([2]; oral 8.84 mg/kg (24.6 μmol/kg)): 10.16±3.95 ‰

C[C@H](NC(=O)[C@H](Cc1ccc(O)cc1)NC(=O)c1ccccc1)[13C](=O)[O-].[Na+] [Na salt of Bz-Tyr-(^13C-Ala), N-benzoyl-L-tyrosyl-^13C-L-alanine]
Δ^13C(‰) peak value [1, 3]: 52.64 ‰
Peak time [1, 4]: 15 min
Δ^13C(‰) value at 5 min after the administration ([1]; oral 35 μmol/kg): 10.33±6.34 ‰
Δ^13C(‰) value at 10 min after the administration ([1]; oral 35 μmol/kg): 33.62±4.76 ‰
Δ^13C(‰) value at 15 min after the administration ([1]; oral 35 μmol/kg): 52.64±11.32 ‰
Δ^13C(‰) value at 20 min after the administration ([1]; oral 35 μmol/kg): 45.61±5.27 ‰
Δ^13C(‰) peak value compared with the peak value of Bz-Ala-(^13C-Ala)-ONa ([1]; rats, oral 35 μmol/kg): higher
Δ^13C(‰) value at 5 min after the administration ([2]; oral 35 μmol/kg): 4.35±3.11 ‰
Δ^13C(‰) value at 10 min after the administration ([2]; oral 35 μmol/kg): 15.65±7.93 ‰
Δ^13C(‰) value at 15 min after the administration ([2]; oral 35 μmol/kg): 24.68±9.48 ‰
Δ^13C(‰) value at 20 min after the administration ([2]; oral 35 μmol/kg): 29.25±9.98 ‰

CC[C@H](C)[C@H](NC(=O)c1ccccc1)C(=O)N[C@@H](C)[13C](=O)[O-].[Na+] [Na salt of Bz-Ile-(^13C-Ala), reference compound]
Δ^13C(‰) peak value [1, 3]: 39.82 ‰
Peak time [1, 4]: 20 min

C[C@H](NC(=O)CNC(=O)c1ccccc1)[13C](=O)[O-].[Na+] [Na salt of Bz-Gly-(^13C-Ala), reference compound]
Δ^13C(‰) peak value [1, 3]: 32.14 ‰
Peak time [1, 4]: 20 min

C[C@H](NC(=O)[C@H](CS)NC(=O)c1ccccc1)[13C](=O)[O-].[Na+] [Na salt of Bz-Cys-(^13C-Ala), reference compound]
Δ^13C(‰) peak value [1, 3]: 31.52 ‰
Peak time [1, 4]: 10 min

C[C@H](NC(=O)[C@H](CCCNC(=N)N)NC(=O)c1ccccc1)[13C](=O)O [Bz-Arg-(^13C-Ala), reference compound]
Δ^13C(‰) peak value [1, 3]: 42.83 ‰
Peak time [1, 4]: 15 min

C[C@H](NC(=O)[C@H](CC(=O)O)NC(=O)c1ccccc1)[13C](=O)[O-].[Na+] [Na salt of Bz-Asp-(^13C-Ala), reference compound]
Δ^13C(‰) peak value [1, 3]: 11.47 ‰
Peak time [1, 4]: 20 min

CC(C)C[C@H](NC(=O)c1ccccc1)C(=O)N[C@@H](C)[13C](=O)[O-].[Na+] [Na salt of Bz-Leu-(^13C-Ala), reference compound]
Δ^13C(‰) peak value [1, 3]: 42.77 ‰
Peak time [1, 4]: 15 min

CSCC[C@H](NC(=O)OCc1ccccc1)C(=O)N[C@@H](C)[13C](=O)[O-].[Na+] [Na salt of Z-Met-(^13C-Ala), benzyloxycarbonyl-L-methionyl-^13C-L-alanine]
Peak time ([1]; Table 2, rats): 15 min
Δ^13C(‰) peak value ([1]; Table 2, rats): 48.71 ‰
Δ^13C(‰) peak value compared with the peak value of Bz-Ala-(^13C-Ala)-ONa ([1]; rats, oral 35 μmol/kg): higher

C[C@H](NC(=O)c1ccccc1)C(=O)N[C@@H](C)[13C](=O)[O-].[Na+] [Na salt of Bz-Ala-(^13C-Ala), reference compound]
Δ^13C(‰) peak value [1, 3]: 45.88 ‰
Peak time [1, 4]: 10 min
Peak time ([1]; Table 2, rats): 10 min
Δ^13C(‰) peak value ([1]; Table 2, rats): 45.88 ‰

CSCC[C@H](NC(=O)OC(C)(C)C)C(=O)N[C@@H](C)[13C](=O)[O-].[Na+] [Na salt of Boc-Met-(^13C-Ala), t-butyloxycarbonyl-L-methionyl-^13C-L-alanine]
Peak time ([1]; Table 2, rats): 15 min
Δ^13C(‰) peak value ([1]; Table 2, rats): 55.50 ‰
Δ^13C(‰) peak value compared with the peak value of Bz-Ala-(^13C-Ala)-ONa ([1]; rats, oral 35 μmol/kg): higher

C[C@H](NC(=O)[C@H](Cc1cnc[nH]1)NC(=O)c1ccccc1)[13C](=O)[O-].[Na+] [Na salt of Bz-His-(^13C-Ala), reference compound]
Δ^13C(‰) peak value [1, 3]: 36.17 ‰
Peak time [1, 4]: 20 min

C[C@H](NC(=O)[C@H](CCCCN)NC(=O)c1ccccc1)[13C](=O)O [Bz-Lys-(^13C-Ala), reference compound]
Δ^13C(‰) peak value [1, 3]: 38.57 ‰
Peak time [1, 4]: 15 min
